{
  "source": "ChEMBL document CHEMBL1156723",
  "about": "“Structure-activity relationship study on a novel series of cyclopentane-containing macrocyclic inhibitors of the hepatitis C virus NS3/4A protease leading to the discovery of TMC435350” (Bioorg Med Chem Lett, 2008)",
  "key": {"[1]": {"experiment": "AUC in Sprague-Dawley rat at 10 mg/kg, po", "assay_type": "ADME, organism-based", "parameters": "dose 10 mg/kg, route oral", "conditions": "plasma"}, "[2]": {"experiment": "AUC in Sprague-Dawley rat at 2 mg/kg, iv", "assay_type": "ADME, organism-based", "parameters": "dose 2 mg/kg, route intravenous", "conditions": "plasma"}, "Hepatitis C virus": {"test_system": "Hepatitis C virus", "experiment": "Antiviral activity against HCV in human Huh7 cells assessed as luciferase activity", "assay_type": "functional, organism-based, Hepacivirus hominis", "conditions": "Huh-7"}, "[3]": {"experiment": "Oral bioavailability in Sprague-Dawley rat at 10 mg/kg, po", "assay_type": "ADME, organism-based", "conditions": "in vivo"}, "[4]": {"experiment": "Clearance in Sprague-Dawley rat at 2 mg/kg, iv", "assay_type": "ADME, organism-based", "parameters": "dose 2 mg/kg, route intravenous", "conditions": "in vivo"}, "[5]": {"experiment": "Metabolic stability in human liver microsomes assessed as intrinsic clearance", "assay_type": "ADME, Microsome"}, "[6]": {"experiment": "Inhibition of recombinant full length HCV NS3/4A protease", "parameters": "species or system Hepacivirus hominis"}, "[7]": {"experiment": "Tmax in Sprague-Dawley rat at 10 mg/kg, po", "assay_type": "ADME, organism-based", "parameters": "dose 10 mg/kg, route oral", "conditions": "in vivo"}, "[8]": {"experiment": "Half life in Sprague-Dawley rat at 10 mg/kg, po", "assay_type": "ADME, organism-based", "parameters": "dose 10 mg/kg, route oral", "conditions": "in vivo"}, "[9]": {"experiment": "Volume of distribution at steady state in Sprague-Dawley rat at 2 mg/kg, iv", "assay_type": "ADME, organism-based", "parameters": "dose 2 mg/kg, route intravenous", "conditions": "in vivo, read-out: Vdss"}, "[10]": {"experiment": "Cmax in Sprague-Dawley rat at 10 mg/kg, po", "assay_type": "ADME, organism-based", "parameters": "dose 10 mg/kg, route oral", "conditions": "in vivo"}, "[11]": {"experiment": "Bile excretion of compound in rat at 1 mg/kg, iv after 1 hr", "assay_type": "ADME, organism-based", "parameters": "dose 1 mg/kg, route intravenous", "conditions": "read-out: Activity"}, "Liver microsomes": {"test_system": "Liver microsomes", "experiment": "Metabolic stability in rat liver microsomes assessed as intrinsic clearance", "assay_type": "ADME, Microsome"}, "[12]": {"experiment": "Ratio of drug level in liver to plasma in Sprague-Dawley rat at 2 mg/kg, iv after 6 hrs", "assay_type": "ADME, organism-based", "parameters": "dose 2 mg/kg, route intravenous"}, "[13]": {"experiment": "Ratio of drug level in liver to plasma in Sprague-Dawley rat at 10 mg/kg, po after 6 hrs", "assay_type": "ADME, organism-based", "parameters": "dose 10 mg/kg, route oral"}, "[14]": {"experiment": "Ratio of drug level in liver to plasma in Sprague-Dawley rat at 10 mg/kg, po after 8 hrs", "assay_type": "ADME, organism-based", "parameters": "dose 10 mg/kg, route oral"}, "[15]": {"experiment": "Ratio of drug level in liver to plasma in Sprague-Dawley rat at 2 mg/kg, iv after 8 hrs", "assay_type": "ADME, organism-based", "parameters": "dose 2 mg/kg, route intravenous"}},
  "data": [
    {"smiles": "COc1ccc2c(O[C@@H]3C[C@H]4C(=O)N[C@]5(C(=O)NS(=O)(=O)C6CC6)C[C@H]5/C=C\\CCCCN(C)C(=O)[C@@H]4C3)cc(-c3cccc(C(C)C)n3)nc2c1C", "values": [
      {"measurement": "AUC", "setting": "[1]", "value": 1.4, "unit": "µM·h"},
      {"measurement": "AUC", "setting": "[2]", "value": 1.36, "unit": "µM·h"},
      {"measurement": "EC50", "setting": "Hepatitis C virus", "value": 6.8, "unit": "nM"},
      {"measurement": "bioavailability", "setting": "[3]", "value": 31, "unit": "%"},
      {"measurement": "clearance", "setting": "[4]", "value": 23.3, "unit": "mL/min/kg"},
      {"measurement": "microsomal CLint", "setting": "[5]", "value": "< 6", "unit": "µL/min/mg"},
      {"measurement": "Ki", "setting": "[6]", "value": 0.3, "unit": "nM"},
      {"measurement": "Tmax", "setting": "[7]", "value": 2, "unit": "h"},
      {"measurement": "half-life", "setting": "[8]", "value": 5.8, "unit": "h"},
      {"measurement": "Vd", "setting": "[9]", "value": 0.7, "unit": "L/kg"},
      {"measurement": "Cmax", "setting": "[10]", "value": 300, "unit": "nM"}
    ]},
    {"smiles": "COc1ccc2c(O[C@@H]3C[C@H]4C(=O)N[C@]5(C(=O)NS(=O)(=O)C6CC6)C[C@H]5/C=C\\CCCCN(C)C(=O)[C@@H]4C3)cc(-c3nc(C(C)C)cs3)nc2c1", "values": [
      {"measurement": "EC50", "setting": "Hepatitis C virus", "value": 17, "unit": "nM"},
      {"measurement": "microsomal CLint", "setting": "[5]", "value": 16, "unit": "µL/min/mg"},
      {"measurement": "Ki", "setting": "[6]", "value": 0.84, "unit": "nM"}
    ]},
    {"smiles": "COc1ccc2c(O[C@@H]3C[C@H]4C(=O)N[C@]5(C(=O)NS(=O)(=O)C6CC6)C[C@H]5/C=C\\CCCCN(C)C(=O)[C@@H]4C3)cc(-c3nccs3)nc2c1", "values": [
      {"measurement": "EC50", "setting": "Hepatitis C virus", "value": 11, "unit": "nM"},
      {"measurement": "microsomal CLint", "setting": "[5]", "value": 38, "unit": "µL/min/mg"},
      {"measurement": "Ki", "setting": "[6]", "value": 0.2, "unit": "nM"}
    ]},
    {"smiles": "C=C[C@@H]1C[C@]1(NC(=O)[C@@H]1C[C@@H](Oc2cc(-c3ccccc3)nc3cc(OC)ccc23)C[C@H]1C(=O)N[C@H](C(=O)N[C@H](C(=O)NC)C1CCCCC1)C(C)(C)C)C(=O)O", "values": [
      {"measurement": "Ki", "setting": "[6]", "value": 22, "unit": "nM"}
    ]},
    {"smiles": "COc1ccc2c(O[C@@H]3C[C@H]4C(=O)N[C@]5(C(=O)NS(=O)(=O)C6CC6)C[C@H]5/C=C\\CCCCN(C)C(=O)[C@@H]4C3)cc(-c3nc(C(C)C)cs3)nc2c1F", "values": [
      {"measurement": "EC50", "setting": "Hepatitis C virus", "value": 57, "unit": "nM"},
      {"measurement": "Ki", "setting": "[6]", "value": 0.55, "unit": "nM"}
    ]},
    {"smiles": "COc1ccc2c(O[C@@H]3C[C@H]4C(=O)N[C@]5(C(=O)NS(=O)(=O)C6CC6)C[C@H]5/C=C\\CCCCN(C)C(=O)[C@@H]4C3)cc(-c3ccccc3)nc2c1", "values": [
      {"measurement": "EC50", "setting": "Hepatitis C virus", "value": 9, "unit": "nM"},
      {"measurement": "microsomal CLint", "setting": "[5]", "value": 46, "unit": "µL/min/mg"},
      {"measurement": "Ki", "setting": "[6]", "value": 0.41, "unit": "nM"},
      {"measurement": "dose excreted at 1 h", "setting": "[11]", "value": 95, "unit": "%"},
      {"measurement": "clearance", "setting": "Liver microsomes", "value": 46, "unit": "µL/min/mg"}
    ]},
    {"smiles": "COc1ccc2c(O[C@@H]3C[C@H]4C(=O)N[C@]5(C(=O)NS(=O)(=O)C6CC6)C[C@H]5/C=C\\CCCCN(C)C(=O)[C@@H]4C3)cc(-c3nc(C(C)C)cs3)nc2c1Cl", "values": [
      {"measurement": "EC50", "setting": "Hepatitis C virus", "value": 2.9, "unit": "nM"},
      {"measurement": "microsomal CLint", "setting": "[5]", "value": 9, "unit": "µL/min/mg"},
      {"measurement": "Ki", "setting": "[6]", "value": 0.1, "unit": "nM"}
    ]},
    {"smiles": "COc1ccc2c(O[C@@H]3C[C@H]4C(=O)N[C@]5(C(=O)NS(=O)(=O)C6CC6)C[C@H]5/C=C\\CCCCN(C)C(=O)[C@@H]4C3)cc(-c3nc(C(C)C)cs3)nc2c1C", "note": "[SIMEPREVIR]", "values": [
      {"measurement": "AUC", "setting": "[1]", "value": 2.79, "unit": "µM·h"},
      {"measurement": "AUC", "setting": "[2]", "value": 5.21, "unit": "µM·h"},
      {"measurement": "EC50", "setting": "Hepatitis C virus", "value": 7.8, "unit": "nM"},
      {"measurement": "bioavailability", "setting": "[3]", "value": 11, "unit": "%"},
      {"measurement": "clearance", "setting": "[4]", "value": 8.42, "unit": "mL/min/kg"},
      {"measurement": "microsomal CLint", "setting": "[5]", "value": "< 6", "unit": "µL/min/mg"},
      {"measurement": "Ki", "setting": "[6]", "value": 0.36, "unit": "nM"},
      {"measurement": "Kp at 6 h", "setting": "[12]", "value": 63.5},
      {"measurement": "Tmax", "setting": "[7]", "value": 3, "unit": "h"},
      {"measurement": "Kp at 6 h", "setting": "[13]", "value": 32},
      {"measurement": "half-life", "setting": "[8]", "value": 2.8, "unit": "h"},
      {"measurement": "Vd", "setting": "[9]", "value": 0.49, "unit": "L/kg"},
      {"measurement": "Cmax", "setting": "[10]", "value": 730, "unit": "nM"}
    ]},
    {"smiles": "COc1ccc2c(O[C@@H]3C[C@H]4C(=O)N[C@]5(C(=O)NS(=O)(=O)C6CC6)C[C@H]5/C=C\\CCCCN(C)C(=O)[C@@H]4C3)cc(-c3csc(NC(C)C)n3)nc2c1", "values": [
      {"measurement": "EC50", "setting": "Hepatitis C virus", "value": 17, "unit": "nM"},
      {"measurement": "microsomal CLint", "setting": "[5]", "value": 15, "unit": "µL/min/mg"},
      {"measurement": "Ki", "setting": "[6]", "value": 1.4, "unit": "nM"}
    ]},
    {"smiles": "CCc1c(OC)ccc2c(O[C@@H]3C[C@H]4C(=O)N[C@]5(C(=O)NS(=O)(=O)C6CC6)C[C@H]5/C=C\\CCCCN(C)C(=O)[C@@H]4C3)cc(-c3nc(C(C)C)cs3)nc12", "values": [
      {"measurement": "EC50", "setting": "Hepatitis C virus", "value": 66, "unit": "nM"},
      {"measurement": "Ki", "setting": "[6]", "value": 3.1, "unit": "nM"}
    ]},
    {"smiles": "COc1ccc2c(O[C@@H]3C[C@H]4C(=O)N[C@]5(C(=O)NS(=O)(=O)C6CC6)C[C@H]5/C=C\\CCCCN(C)C(=O)[C@@H]4C3)cc(-n3ccc(C(C)C)n3)nc2c1C", "values": [
      {"measurement": "AUC", "setting": "[1]", "value": 1.3, "unit": "µM·h"},
      {"measurement": "AUC", "setting": "[2]", "value": 1.05, "unit": "µM·h"},
      {"measurement": "EC50", "setting": "Hepatitis C virus", "value": 9.7, "unit": "nM"},
      {"measurement": "bioavailability", "setting": "[3]", "value": 25, "unit": "%"},
      {"measurement": "clearance", "setting": "[4]", "value": 41.7, "unit": "mL/min/kg"},
      {"measurement": "microsomal CLint", "setting": "[5]", "value": "< 6", "unit": "µL/min/mg"},
      {"measurement": "Ki", "setting": "[6]", "value": 0.16, "unit": "nM"},
      {"measurement": "Kp at 8 h", "setting": "[14]", "value": 44},
      {"measurement": "Kp at 8 h", "setting": "[15]", "value": 23.5},
      {"measurement": "Tmax", "setting": "[7]", "value": 1.5, "unit": "h"},
      {"measurement": "half-life", "setting": "[8]", "value": 2.2, "unit": "h"},
      {"measurement": "Vd", "setting": "[9]", "value": 4.6, "unit": "L/kg"},
      {"measurement": "Cmax", "setting": "[10]", "value": 310, "unit": "nM"}
    ]}
  ]
}
